Key:
Test in all cases: MIC, broth microdilution (CLSI), substance alone or ATB combined with compound at 4 or 8 μg/mL
KPN BAA-1898 = type: cell-based, K. pneumoniae; conditions: Klebsiella pneumoniae, BAA1898; substance alone; KPN BAA-1898; read-out: MIC
In short: (§1)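 Growth inhibition endpoint, read visually after 16-20 h at 35° C in ambient air. Cation-adjusted Mueller-Hinton broth, inoculum 5·10^5 CFU/mL, CLSI M7-A7 protocol.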

KPN UFR42 = type: cell-based, K. pneumoniae; conditions: Klebsiella pneumoniae; substance alone; KPN UFR42; read-out: MIC
In short: as §1

SAU 29213 = type: cell-based, S. aureus; conditions: for MIC ATB combined with compound: compound @4 μg/ml, SAU 29213
In short: as §1

ECL P99 = type: cell-based, E. cloacae; conditions: Enterobacter cloacae; substance alone; ECL P99; read-out: MIC
In short: as §1

SPN 49619 = type: cell-based, S. pneumoniae; conditions: SPN 49619; for MIC ATB combined with compound: compound @4 μg/ml
In short: as §1

ABA UFR154 = type: cell-based, A. baumannii; conditions: Acinetobacter baumannii, substance alone, read-out: MIC
Procedure: (§2) Compounds of the present invention were assessed against genotyped bacterial strains alone or in combination with an antibacterial. In the assays, MICs of said compounds or combination of antibiotics with fixed concentrations of said compounds (4 or 8 μg/mL) were determined by the broth microdilution method according to the Clinical Laboratory Standards Institute (CLSI-M7-A7). Briefly, compounds alone according to the invention were prepared in DMSO and spotted (2 μL each) on sterile polystyrene plates (Corning, 3788). Combinations of compounds and antibiotics dilutions were prepared in DMSO and spotted (1 μL each) on sterile polystyrene plates (Corning, 3788). Log phase bacterial suspensions were adjusted to a final density of 5·10^5 CFU/mL in cation-adjusted Mueller-Hinton broth (ca-MHB; Becton-Dickinson and Company) and added to each well (98 μL). Assays including Fosfomycin were supplemented with 25 μg/ml of Glucose-6-phosphate. Microplates were incubated for 16-20 h at 35° C. in ambient air. The MIC of the compounds was defined as the lowest concentration of said compounds that prevented bacterial growth as read by visual inspection. The MIC of ATB at each compound concentration was defined as the lowest concentration of ATB that prevented bacterial growth as read by visual inspection.

ABA UFR155 = type: cell-based, A. baumannii; conditions: Acinetobacter baumannii, substance alone, read-out: MIC
Procedure: as §2

ECO UFR39 = type: cell-based, E. coli; conditions: Escherichia coli; substance alone; ECO UFR39; read-out: MIC
In short: as §1

ECO 190317 = type: cell-based, E. coli; conditions: Escherichia coli; substance alone; ECO 190317; read-out: MIC
In short: as §1

PAE 105250 = type: cell-based, P. aeruginosa; conditions: PAE 105250; for MIC ATB combined with compound: compound @4 μg/ml
In short: as §1

PAE UFR48 = type: cell-based, P. aeruginosa; conditions: PAE UFR48; for MIC ATB combined with compound: compound @4 μg/ml
In short: as §1

PAE UFR90 = type: cell-based, P. aeruginosa; conditions: PAE UFR90; for MIC ATB combined with compound: compound @4 μg/ml
In short: as §1

[1] = Pseudomonas aeruginosa, substance alone, read-out: MIC

## NCCON=C1C[C@@H](C(N)=O)N2C[C@@H]1N(OS(=O)(=O)[O-])C2=O.[Na+] [Example 2, sodium and 2,2,2-trifluoroacetate [(2S,5S)-4-(2-ammonium-ethoxyimino)-2-carbamoyl-7-oxo-1,6-diazabicyclo[3.2.1]octan-6-yl] sulfate]
KPN BAA-1898
  MIC: > 32 µg/mL
KPN UFR42
  MIC: > 32 µg/mL
SAU 29213; ATB ATM
  MIC ATB combined with compound: >32 µg/mL
SAU 29213; ATB FEP
  MIC ATB combined with compound: 4 µg/mL
SAU 29213; ATB FOS
  MIC ATB combined with compound: 0.5 µg/mL
SAU 29213; ATB MEM
  MIC ATB combined with compound: 0.125 µg/mL
SAU 29213; ATB PIP
  MIC ATB combined with compound: 1 µg/mL
SAU 29213; Staphylococcus aureus, substance alone, SAU 29213 (MSSA 29213), read-out: MIC
  MIC: > 32 µg/mL
ECL P99
  MIC: 16 µg/mL
SPN 49619; ATB ATM
  MIC ATB combined with compound: >32 µg/mL
SPN 49619; ATB FEP
  MIC ATB combined with compound: 0.063 µg/mL
SPN 49619; ATB FOS
  MIC ATB combined with compound: 16 µg/mL
SPN 49619; ATB MEM
  MIC ATB combined with compound: 0.063 µg/mL
SPN 49619; ATB PIP
  MIC ATB combined with compound: 0.5 µg/mL
SPN 49619; Streptococcus pneumoniae, substance alone, read-out: MIC
  MIC: > 32 µg/mL
ABA UFR154
  MIC: > 32 µg/mL
ABA UFR155
  MIC: > 32 µg/mL
ECO UFR39
  MIC: 4 µg/mL
ECO 190317
  MIC: 4 µg/mL
PAE 105250; ATB ATM
  MIC ATB combined with compound: 8 µg/mL
PAE 105250; ATB FEP
  MIC ATB combined with compound: 4 µg/mL
PAE 105250; ATB FOS
  MIC ATB combined with compound: >128 µg/mL
PAE 105250; ATB MEM
  MIC ATB combined with compound: 2 µg/mL
PAE 105250; ATB PIP
  MIC ATB combined with compound: >32 µg/mL
PAE 105250; [1]
  MIC: > 32 µg/mL
PAE UFR48; ATB ATM
  MIC ATB combined with compound: 8 µg/mL
PAE UFR48; ATB FEP
  MIC ATB combined with compound: 32 µg/mL
PAE UFR48; ATB FOS
  MIC ATB combined with compound: 16 µg/mL
PAE UFR48; ATB MEM
  MIC ATB combined with compound: 4 µg/mL
PAE UFR48; ATB PIP
  MIC ATB combined with compound: 128 µg/mL
PAE UFR48; [1]
  MIC: 64 µg/mL
PAE UFR90; ATB ATM
  MIC ATB combined with compound: 16 µg/mL
PAE UFR90; ATB FEP
  MIC ATB combined with compound: 8 µg/mL
PAE UFR90; ATB FOS
  MIC ATB combined with compound: 4 µg/mL
PAE UFR90; ATB MEM
  MIC ATB combined with compound: 1 µg/mL
PAE UFR90; ATB PIP
  MIC ATB combined with compound: >32 µg/mL
PAE UFR90; [1]
  MIC: > 128 µg/mL
